In ChEMBL document CHEMBL1146750, “Design, synthesis and evaluation of potential inhibitors of HIV gp120-CD4 interactions” (Bioorg Med Chem Lett, 2004):

Legend:
[1] = Toxicity against HIV cells; format: cell-based; settings: human immunodeficiency virus 1
[2] = system: Human immunodeficiency virus 1; experiment: Inhibition of HIV-cell fusion was determined at 10 uM by using cellular FIGS assay; Inactive; format: functional, organism-based
[3] = system: Human immunodeficiency virus 1; experiment: Inhibition of HIV-cell fusion was determined by using cellular FIGS assay; format: functional, organism-based
C8166 [4] = experiment: Inhibition of HIV-1 IIIB infections in C8166 cell lines was determined; 4-8 uM; format: functional, cell-based; settings: Homo sapiens
[5] = Therapeutic index in C8166 cell lines was determined; format: cell-based; settings: human, C8166 cells; read-out: TC50 (the source's name)
[6] = system: Human immunodeficiency virus 1; experiment: Inhibition of HIV-specific CD4-gp120 interaction was determined using recombinant protein; format: functional
C8166 [7] = experiment: Inhibition of HIV-1 IIIB infections in C8166 cell lines was determined; Range is 4-8 uM; format: functional, cell-based; settings: Homo sapiens

| IC50 [2] | Compound | Activity [1] | other results |
| --- | --- | --- | --- |
| Not Active | N=C(N)c1cccc(Oc2ccccc2)c1 | 100 µM | – |
| Not Active | N=C(N)c1cccc(OCc2ccc(OCc3ccccc3)cc2)c1 | 100 µM | – |
| Not Active | N=C(N)Nc1cccc(OCc2ccc(Cl)cc2)c1.O=C(O)C(F)(F)F | 100 µM | – |
| – | Cl.N=C(N)Nc1cccc(OCc2ccccc2)c1 | – | IC50 [3]: 131 µM; EC50 (C8166 [4]): 8 µM; CC50 [5]: 40 µM; Inhibition [6]: 5 mM |
| – | Cl.N=C(N)Nc1cccc(Oc2ccccc2)c1 | – | IC50 [3]: 167 µM; CC50 [5]: 20 µM; Inhibition [6]: 5 mM; EC50 (C8166 [7]): 8 µM |
| Not Active | Cc1ccc(COc2cccc(C(=N)N)c2)cc1 | 100 µM | – |
| Not Active | N=C(N)Nc1cccc(OCc2ccc(Br)cc2)c1.O=C(O)C(F)(F)F | 100 µM | – |
| Not Active | N=C(N)c1cccc(OCc2ccc(Cl)cc2)c1 | 100 µM | – |
| Not Active | N=C(N)c1cccc(OCc2ccccc2)c1 | 100 µM | – |
| Not Active | N=C(N)c1cccc(OCc2cccc([N+](=O)[O-])c2)c1 | 100 µM | – |
| Not Active | N=C(N)c1cccc(OCc2ccc(Br)cc2)c1 | 100 µM | – |
